Here are results for 29 compounds from patent publication US11111251B2, “Positive allosteric modulators of the muscarinic acetylcholine receptor M1” (Vanderbilt University, priority 2016, dated 2021).

Like-named read-outs stand apart in the source and are kept apart here.

The target in the assay is T1, human mAChR M1 (Homo sapiens, UniProt P11229).
T1 sequence (P11229 1-460): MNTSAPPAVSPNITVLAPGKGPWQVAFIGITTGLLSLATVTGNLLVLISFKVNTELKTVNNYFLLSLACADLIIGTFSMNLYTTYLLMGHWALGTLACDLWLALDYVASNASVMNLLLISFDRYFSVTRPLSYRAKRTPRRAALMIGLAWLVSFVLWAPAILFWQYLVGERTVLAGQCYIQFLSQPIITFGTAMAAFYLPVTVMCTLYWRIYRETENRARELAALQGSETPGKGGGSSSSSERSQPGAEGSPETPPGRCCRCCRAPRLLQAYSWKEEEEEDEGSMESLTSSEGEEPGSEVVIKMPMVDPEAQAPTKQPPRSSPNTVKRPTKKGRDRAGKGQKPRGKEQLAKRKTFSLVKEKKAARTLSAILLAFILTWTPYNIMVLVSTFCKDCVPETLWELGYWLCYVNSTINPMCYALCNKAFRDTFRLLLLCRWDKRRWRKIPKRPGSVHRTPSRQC
The assay is described as follows: mAChR M1 cell-based functional assay: calcium mobilization, positive allosteric modulator mode (increase in EC20 acetylcholine response). The settings on record: for Emax: read-out: Human M1 Emax (%). The method, boiled down: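 Calcium-flux assay in CHO-K1 cells stably expressing human M1, loaded with Fluo-4 AM (50 min, 37 °C) and read at 1 Hz. Compound (11-point, 1:3 series) was added at 4 s, EC20 acetylcholine at 144 s and EC80 at 230 s. PAM activity is the concentration-dependent rise in the EC20 response, fitted with a four-parameter logistic.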

Setting [1] is: Table 2, human M1, read-out: Human M1 EC50.
The mark [2] stands for this setting: Table 1, mAChR M1 cell-based functional assay, PAM mode, species not given, read-out: EC50.

`Cn1ccc(-c2ccc(Cc3cc(C(=O)NC4CC5(COC5)C4)nc4ccn(C)c34)cn2)n1` [Compound 507, 1-methyl-7-[[6-(1-methylpyrazol-3-yl)-3-pyridyl]methyl]-N-(2-oxaspiro[3.3]heptan-6-yl)pyrrolo[3,2-b]pyridine-5-carboxamide;]: the EC50 under setting [1] stood at 985 nM. The Emax (Table 2, human M1) is 77.6%.
For `Cc1ccc(Cc2cc(C(=O)NC3COC3)nc3ccsc23)cn1` [Compound 258, 7-[(6-methyl-3-pyridyl)methyl]-N-(oxetan-3-yl)thieno[3,2-b]pyridine-5-carboxamide] the same measures were greater than 10000 nM and 27.5%.
Take `COC1CC(NC(=O)c2cc(Cc3ccc(-c4csc(C)n4)cc3)c3sccc3n2)C1` (stereo not shown) [Compound 180, N-(3-methoxycyclobutyl)-7-[[4-(2-methylthiazol-4-yl)phenyl]methyl]thieno[3,2-b]pyridine-5-carboxamide]: the EC50 under setting [1] worked out at 3300 nM. Further, the Emax (Table 2, human M1) was 72.1%.
For `Cc1csc2c(Cc3ccc(-c4ccn(C)n4)cc3)cc(C(=O)NCC3CCO3)nc12` (stereo not shown) [Compound 310, 3-methyl-7-[[4-(1-methylpyrazol-3-yl)phenyl]methyl]-N-(oxetan-2-ylmethyl)thieno[3,2-b]pyridine-5-carboxamide] the same measures were 471 nM and 78.1%.
As to `O=C(N[C@H]1COCC[C@@H]1O)c1cc(Cc2ccc(-c3nccs3)cc2)c2sccc2n1` [Compound 371], the EC50 under setting [1] stood at 22.1 nM. Besides, for the setting “Table 2, human M1”, the Emax is 81.5%.
For `O=C(NCC1CCCO1)c1cc(Cc2ccc(-c3nccs3)cc2)c2sccc2n1` (stereo not shown) [Compound 384, N-(tetrahydrofuran-2-ylmethyl)-7-[(4-thiazol-2-ylphenyl)methyl]thieno[3,2-b]pyridine-5-carboxamide] the same measures were 1370 nM and 65.2%.
For `CN1CCCC(NC(=O)c2cc(Cc3ccc(-c4cscn4)cc3)c3sccc3n2)C1` (stereo not shown) [Compound 210, N-(1-methyl-3-piperidyl)-7-[(4-thiazol-4-ylphenyl)methyl]thieno[3,2-b]pyridine-5-carboxamide] the same measures were 2340 nM and 82.2%.
Turning to `Cc1ccc(Cc2cc(C(=O)N[C@H]3CCCCC[C@@H]3O)nc3ccsc23)cn1` [Compound 47, N-[(1S,2S)-2-hydroxycycloheptyl]-7-[(6-methyl-3-pyridyl)methyl]thieno[3,2-b]pyridine-5-carboxamide], the concentration for a half-maximal effect (EC50) under setting [2] turned out to be 117 nM.
Take `O=C(NC1CCS(=O)(=O)C1)c1cc(Cc2ccc(-n3cccn3)cc2)c2sccc2n1` (stereo not shown) [Compound 439, N-(1,1-dioxothiolan-3-yl)-7-[(4-pyrazol-1-ylphenyl)methyl]thieno[3,2-b]pyridine-5-carboxamide]: under setting [1], the concentration giving a half-maximal response (EC50) came out at 400 nM. Under “Table 2, human M1”, the maximum response (Emax) came to 68.1%.
For `Cn1cc(-c2ccc(Cc3cc(C(=O)NC4CCOCC4(C)C)nc4ccsc34)cn2)cn1` (stereo not shown) [Compound 362, N-(3,3-dimethyltetrahydropyran-4-yl)-7-[[6-(1-methylpyrazol-4-yl)-3-pyridyl]methyl]thieno[3,2-b]pyridine-5-carboxamide] the same measures were 84.9 nM and 72.4%.
Regarding `O=C(NC1CC2(COC2)C1)c1cc(Cc2c(F)cc(-c3cscn3)cc2F)c2sccc2n1` [Compound 272, 7-[(2,6-difluoro-4-thiazol-4-yl-phenyl)methyl]-N-(2-oxaspiro[3.3]heptan-6-yl)thieno[3,2-b]pyridine-5-carboxamide], under setting [1], the concentration giving a half-maximal response (EC50) was 434 nM. Moreover, the maximum response (Emax) (Table 2, human M1) worked out at 35.9%.
`O=C(N[C@@H]1CCCCC[C@H]1O)c1cc(Cc2ccc(-n3cccn3)cc2)c2sccc2n1` [Compound 77, N-[(1R,2R)-2-hydroxycycloheptyl]-7-[(4-pyrazol-1-ylphenyl)methyl]thieno[3,2-b]pyridine-5-carboxamide]: under setting [1], the EC50 amounted to 136 nM. Further, the maximum response (Emax) (Table 2, human M1) turned out to be 84.8%.
On the same counts, the results for `Cn1ccc2nc(C(=O)NC3CC4(COC4)C3)cc(Cc3ccc(-c4cscn4)cc3)c21` [Compound 452, 1-methyl-N-(2-oxaspiro[3.3]heptan-6-yl)-7-[(4-thiazol-4-ylphenyl)methyl]pyrrolo[3,2-b]pyridine-5-carboxamide] are 339 nM and 71.9%.
On the same counts, the results for `Cc1csc2c(Cc3ccc(-n4cccn4)cc3)cc(C(=O)N(C)C3CCOCC3)nc12` [Compound 121, N,3-dimethyl-7-[(4-pyrazol-1-ylphenyl)methyl]-N-tetrahydropyran-4-yl-thieno[3,2-b]pyridine-5-carboxamide] are 6760 nM and 54.9%.
On the same counts, the results for `Cn1ccc2nc(C(=O)N[C@H]3CCCCC[C@@H]3O)cc(Cc3ccc(-c4cscn4)cc3)c21` [Compound 456, N-[(1S,2S)-2-hydroxycycloheptyl]-1-methyl-7-[(4-thiazol-4-ylphenyl)methyl]pyrrolo[3,2-b]pyridine-5-carboxamide] are 129 nM and 67.9%.
Regarding `Cc1ccc(Cc2cc(C(=O)N[C@H]3CCC[C@@H]3O)nc3ccsc23)cn1` [Compound 42, N-[(1S,2S)-2-hydroxycyclopentyl]-7-[(6-methyl-3-pyridyl)methyl]thieno[3,2-b]pyridine-5-carboxamide], the 50% effective concentration (EC50) under setting [2] is 360 nM.
For `Cn1ccc(-c2ccc(Cc3cc(C(=O)NCC4CCCCO4)nc4ccsc34)cn2)n1` (stereo not shown) [Compound 359, 7-[[6-(1-methylpyrazol-3-yl)-3-pyridyl]methyl]-N-(tetrahydropyran-2-ylmethyl)thieno[3,2-b]pyridine-5-carboxamide], under setting [1], the half-maximal effective concentration (EC50) turned out to be 573 nM. Further, for the setting “Table 2, human M1”, the maximal effect (Emax) worked out at 83.4%.
On the same counts, the results for `O=C(NC1CCCCNC1=O)c1cc(Cc2ccc(-n3cccn3)cc2)c2sccc2n1` (stereo not shown) [Compound 79, N-(2-oxoazepan-3-yl)-7-[(4-pyrazol-1-ylphenyl)methyl]thieno[3,2-b]pyridine-5-carboxamide] are 397 nM and 70.5%.
For `Cn1ncc2nc(C(=O)N[C@H]3CCOC[C@@H]3O)cc(Cc3ccc(-c4cscn4)cc3)c21` [Compound 493, N-[(3R,4S)-3-hydroxytetrahydropyran-4-yl]-1-methyl-7-[(4-thiazol-4-ylphenyl)-methyl]pyrazolo[4,3-b]pyridine-5-carboxamide] the same measures were 176 nM and 65.5%.
On the same counts, the results for `O=C(NC1CC(F)(F)C1)c1ccc(Cc2cc(C(=O)NC3CC(F)(F)C3)nc3ccsc23)cc1` [Compound 408, N-(3,3-difluorocyclobutyl)-7-[[4-[(3,3-difluorocyclobutyl)carbamoyl]phenyl]methyl]thieno[3,2-b]pyridine-5-carboxamide] are 397 nM and 45%.
Regarding `Cc1ncc(Cc2cc(C(=O)N[C@@H]3CCOC[C@H]3O)nc3ccsc23)cn1` [Compound 128, N-[(3S,4R)-3-hydroxytetrahydropyran-4-yl]-7-[(2-methylpyrimidin-5-yl)methyl]thieno[3,2-b]pyridine-5-carboxamide], the EC50 under setting [1] is greater than 10000 nM. Further, the maximal response (Emax) (Table 2, human M1) is 75%.
On to `Cc1ccc(Cc2cc(C(=O)N[C@@H]3CC[C@H]3O)nc3ccsc23)cn1` [Compound 44], for which the EC50 under setting [2] amounted to 3770 nM.
`Cn1ccc(-c2ccc(Cc3cc(C(=O)NC4CN(C5COC5)C4)nc4ccsc34)cn2)n1` [Compound 425]: under setting [1], the EC50 stood at 5140 nM. Besides, for the setting “Table 2, human M1”, the Emax was found to be 65.8%.
For `O=C(N[C@H]1CCCCC[C@@H]1O)c1cc(Cc2ccc(-c3cscn3)cc2)c2sccc2n1` [Compound 219, N-[(1S,2S)-2-hydroxycycloheptyl]-7-[(4-thiazol-4-ylphenyl)methyl]thieno[3,2-b]pyridine-5-carboxamide] the same measures were 144 nM and 73%.
For `CC1(C)CC(NC(=O)c2cc(Cc3ccc(-c4nccs4)cc3)c3sccc3n2)CCO1` (stereo not shown) [Compound 337] the same measures were 852 nM and 84.2%.
On the same counts, the results for `Cc1nc(-c2ccc(Cc3cc(C(=O)NC4CC5(COC5)C4)nc4ccsc34)cc2)cs1` [Compound 178, 7-[[4-(2-methylthiazol-4-yl)phenyl]methyl]-N-(2-oxaspiro[3.3]heptan-6-yl)thieno[3,2-b]pyridine-5-carboxamide] are 652 nM and 86%.
Regarding `Cc1csc2c(Cc3ccc(-n4cccn4)cc3)cc(C(=O)NC3CCN(C)CC3)nc12` [Compound 124, 3-methyl-N-(1-methyl-4-piperidyl)-7-[(4-pyrazol-1-ylphenyl)methyl]thieno[3,2-b]pyridine-5-carboxamide], the EC50 under setting [1] was 2460 nM. For the same compound, the Emax (Table 2, human M1) turned out to be 64.4%.
On to `Cc1ncc(Cc2cc(C(=O)NC3CCOCC3)nc3ccsc23)cn1` [Compound 126, 7-[(2-methylpyrimidin-5-yl)methyl]-N-tetrahydropyran-4-yl-thieno[3,2-b]pyridine-5-carboxamide], for which the 50% effective concentration (EC50) under setting [1] is greater than 10000 nM. Besides, the Emax (Table 2, human M1) was 27.4%.
On the same counts, the results for `Cc1ccc(Cc2cc(C(=O)N[C@@H]3COCC[C@H]3O)nc3c(C)csc23)cn1` [Compound 105] are 825 nM and 87.7%.
